The results in this text go back to patent publication US6218393A, “Anthranilic acid derivatives as multi drug resistance modulators” (priority 1997, dated 2001).

The test system of data set [1] is AR 1.0 cells. Nature of the data set: Potentiation index with doxorubicin titration. Type of data set: cell-based, mouse. As to conditions: for Potentiation Index at RMA concentration 30 nM: Table C2, RMA 30 nM; for Potentiation Index at RMA concentration 100 nM: Table C2, RMA 100 nM; for Potentiation Index at RMA concentration 300 nM: Table C2, RMA 300 nM; for Potentiation Index at RMA concentration 10 nM: Table C2, RMA 10 nM; for Potentiation Index at RMA concentration 500 nM: Table C2, RMA 500 nM. In short, it runs like this:
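Doxorubicin IC50 in AR 1.0 cells (MDR subline of EMT6 mouse mammary carcinoma) determined by sulphorhodamine B after 4-day culture across 0.263 nM-17.24 μM, with and without a fixed dose of test compound; their ratio gives the PI.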

Data set [2] concerns AR 1.0 cells. In words: Potentiation of doxorubicin toxicity: proliferation assay (sulphorhodamine B). The format is cell-based, mouse. The text has this: (a) Selected compounds of formula (I) were examined for their ability to potentiate the toxicity of doxorubicin in AR 1.0 cells.
Data set [3] has as its system AR 1.0 cells. In words: Drug accumulation assay: daunorubicin accumulation in AR 1.0 cells. Type of data set: cell-based. As to conditions: Mus musculus, 100% = accumulation with verapamil 100 μM, 1 hr, 37° C. A digest of the protocol:
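Daunorubicin accumulation was measured in cells plated 48 h beforehand. These were AR 1.0 cells, an MDR-resistant derivative of mouse EMT6 mammary carcinoma, cultured at 37 °C in 5% CO2 in RPMI 1640 plus 10% foetal calf serum and 2 mM glutamine.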

Where [4] appears, read: Mus musculus, 96 h, compound alone, four day proliferation, read-out: Compound Toxicity (IC50).
Setting [5] is: with fixed doxorubicin 0.34 μm, four days, 5760 min, read-out: Toxicity with Cytotoxic Agent (IC50).

As a reminder, the IC50 is the point on the concentration scale where inhibition reaches its midpoint.

As for `COc1cc2c(cc1OC)CN(CCc1ccc(NC(=O)c3ccccc3NC(=O)c3cccc(F)c3)cc1)CC2` [compound 9500, 2-(3-Fluoro-benzoylamino)-N-{4-[2-(6,7-dimethoxy-3,4-dihydro-1H-isoquinolin-2-yl)-ethyl]-phenyl}-benzamide], in data set [1], the “Potentiation Index at RMA concentration 30 nM” value stood at 5.5, the “Potentiation Index at RMA concentration 100 nM” value was found to be 97 and the “Potentiation Index at RMA concentration 300 nM” value amounted to 300. Also, in data set [2] (setting [4]), the IC50 is 5000 nM. Besides, the IC50 in data set [2] (setting [5]) turned out to be 9 nM. Also, in data set [3], half-maximal inhibition (IC50) was put at 190 nM.

In the case of `COc1cc2c(cc1OC)CN(CCNC(=O)c1ccccc1NC(=O)c1ccc3ccccc3c1)CC2` [compound 9295, Naphthalene-2-carboxylic acid {2-[2-(6,7-dimethoxy-3,4-dihydro-1H-isoquinolin-2-yl)-ethylcarbamoyl]-phenyl}-amide], in data set [1], the “Potentiation Index at RMA concentration 300 nM” value is on record as 16. The IC50 in data set [2] (setting [4]) worked out at 40000 nM; in data set [2] (setting [5]) it was 600 nM; in data set [3] it was 390 nM.

As for `COc1cc2c(cc1OC)CN(CCc1ccc(NC(=O)c3ccc([N+](=O)[O-])cc3NC(=O)c3cnc4ccccc4c3)cc1)CC2` [compound 9581, Quinoline-3-carboxylic acid (2-{4-[2-(6,7-dimethoxy-3,4-dihydro-1H-isoquinolin-2-yl)-ethyl]-phenylcarbamoyl}-5-nitro-phenyl)-amide], in data set [1], the “Potentiation Index at RMA concentration 10 nM” value is on record as 90. The “Potentiation Index at RMA concentration 30 nM” value in data set [1] was found to be 300. For the same compound, the IC50 in data set [2] (setting [4]) turned out to be 310 nM; in data set [3] it was 15 nM.

Regarding `COc1cc2c(cc1OC)CN(CCNC(=O)c1ccccc1NC(=O)c1ccc(Cc3ccccc3)cc1)CC2` [compound 9442, 2-(4-Benzyl-benzoylamino)-N-[2-(6,7-dimethoxy-3,4-dihydro-1H-isoquinolin-2-yl)-ethyl]-benzamide], the “Potentiation Index at RMA concentration 300 nM” value in data set [1] was 27. Also, the “Potentiation Index at RMA concentration 500 nM” value in data set [1] came out at 67. In addition, the IC50 in data set [2] (setting [4]) is 7200 nM; in data set [2] (setting [5]), 50 nM; in data set [3] it was 1000 nM.

Consider `COc1cc2c(cc1OC)CN(CCc1ccc(NC(=O)c3ccccc3NC(=O)c3cnc4c(c3)CCCC4)cc1)CC2` [compound 9590, 5,6,7,8-Tetrahydroquinoline-3-carboxylic acid (2-{4-[2-(6,7-dimethoxy-3,4-dihydro-1H-isoquinolin-2-yl)-ethyl]-phenylcarbamoyl}-phenyl)-amide], for which the “Potentiation Index at RMA concentration 10 nM” value in data set [1] turned out to be 2. In addition, in data set [1], the “Potentiation Index at RMA concentration 30 nM” value was 14. The IC50 in data set [2] (setting [4]) amounted to 9500 nM; in data set [3], 97 nM.

For `COc1cc2c(cc1OC)CN(CCc1ccc(NC(=O)c3ccccc3NC(=O)c3ccccc3)cc1)CC2` [compound 9456, 2-Benzoylamino-N-{4-[2-(6,7-dimethoxy-3,4-dihydro-1H-isoquinolin-2-yl)-ethyl]-phenyl}-benzamide], the “Potentiation Index at RMA concentration 100 nM” value in data set [1] was 112. Moreover, the IC50 in data set [2] (setting [4]) came out at 5000 nM; in data set [3], 300 nM.

As for `COc1cc2c(cc1OC)CN(CCc1ccc(NC(=O)c3ccccc3NC(=O)c3ccccc3OC)cc1)CC2` [compound 9477, 2-(2-Methoxy-benzoylamino)-N-{4-[2-(617-dimethoxy-3,4-dihydro-1H-isoquinolin-2-yl)-ethyl]-phenyl}-benzamide], in data set [1], the “Potentiation Index at RMA concentration 300 nM” value is given as 29 and the “Potentiation Index at RMA concentration 500 nM” value came out at 63. Also, the IC50 in data set [2] (setting [4]) is 4000 nM. The compound also showed an IC50 in data set [3] of 410 nM.

`COc1cc2c(cc1OC)CN(CCc1ccc(NC(=O)c3ccccc3NC(=O)c3ccccc3F)cc1)CC2` [compound 9489, 2-(2-Fluoro-benzoylamino)-N-{4-[2-(6,7-dimethoxy-3,4-dihydro-1H-isoquinolin-2-yl)-ethyl]-phenyl}-benzamide]: in data set [1], the “Potentiation Index at RMA concentration 100 nM” value was 77, the “Potentiation Index at RMA concentration 300 nM” value amounted to 192 and the “Potentiation Index at RMA concentration 500 nM” value came to 303. In addition, the IC50 in data set [2] (setting [4]) is 7000 nM. Also, in data set [2] (setting [5]), the IC50 was 50 nM. This compound showed an IC50 in data set [3] of 150 nM.

Turning to `COc1cc2c(cc1OC)CN(CCc1ccc(NC(=O)c3ccccc3NC(=O)c3cccc4ccccc34)cc1)CC2` [compound 9470], in data set [1], the “Potentiation Index at RMA concentration 300 nM” value is 26. In addition, the “Potentiation Index at RMA concentration 500 nM” value in data set [1] was determined as 90. Also, the IC50 in data set [2] (setting [4]) was 3500 nM; in data set [2] (setting [5]) it was 75 nM; in data set [3], 1300 nM.

As to `COc1cc2c(cc1OC)CN(CCc1ccc(NC(=O)c3ccc([N+](=O)[O-])cc3NC(=O)c3cnc4ccccc4n3)cc1)CC2` [compound 9541, Quinoxaline-2-carboxylic acid (2-{4-(2-(6,7-dimethoxy-3,4-dihydro-1H-isoquinolin-2-yl)-ethyl]-phenylcarbamoyl}-5-nitro-phenyl)-amide], in data set [1], the “Potentiation Index at RMA concentration 10 nM” value worked out at 75, the “Potentiation Index at RMA concentration 30 nM” value stood at 150, the “Potentiation Index at RMA concentration 100 nM” value is listed as 160 and the “Potentiation Index at RMA concentration 300 nM” value came to 160. The IC50 in data set [2] (setting [4]) is 860 nM. Also, the IC50 in data set [2] (setting [5]) came to 6 nM. Also, the IC50 in data set [3] was 20 nM.

For `COc1cc2c(cc1OC)CN(CCc1ccc(NC(=O)c3ccccc3NC(=O)c3ccc(C)cc3)cc1)CC2` [compound 9504, 2-(4-Methyl-benzoylamino)-N-{4-[2-(6,7-dimethoxy-3,4-dihydro-1H-isoquinolin-2-yl)-ethyl]-phenyl}-benzamide], in data set [1], the “Potentiation Index at RMA concentration 100 nM” value was determined as 34, the “Potentiation Index at RMA concentration 300 nM” value is 150 and the “Potentiation Index at RMA concentration 500 nM” value turned out to be 267. In addition, the IC50 in data set [2] (setting [4]) is 5000 nM. In data set [2] (setting [5]), the IC50 was 60 nM. This compound had an IC50 in data set [3] of 260 nM.

For `COc1cc2c(cc1OC)CN(CCc1ccc(NC(=O)c3ccccc3NC(=O)c3ccccc3Cl)cc1)CC2` [compound 9494], the “Potentiation Index at RMA concentration 300 nM” value in data set [1] was 38. Also, the “Potentiation Index at RMA concentration 500 nM” value in data set [1] was 148. The values for the IC50 in data set [2] (setting [4]), in data set [2] (setting [5]) and in data set [3] were 9000 nM, 50 nM and 400 nM, respectively.

Regarding `COc1cc2c(cc1OC)CN(CCc1ccc(NC(=O)c3ccccc3NC(=O)c3ccccc3O)cc1)CC2` [compound 9535], the “Potentiation Index at RMA concentration 100 nM” value in data set [1] was 32. Moreover, the “Potentiation Index at RMA concentration 300 nM” value in data set [1] came to 128. For the same compound, the IC50 in data set [2] (setting [4]) was found to be 2600 nM; in data set [2] (setting [5]), 15 nM; in data set [3] it was 450 nM.

Turning to `CCCc1ccc(C(=O)Nc2ccccc2C(=O)NCCN2CCc3cc(OC)c(OC)cc3C2)cc1` [compound 9297, 2-(4-Propyl-benzoylamino)-N-[2-(6,7-dimethoxy-3,4-dihydro-1H-isoquinolin-2-yl)-ethyl]-benzamide], in data set [1], the “Potentiation Index at RMA concentration 300 nM” value came to 16. Further, the IC50 in data set [2] (setting [4]) is 18000 nM; in data set [2] (setting [5]) it was 330 nM; in data set [3], 400 nM.

Regarding `COc1cc2c(cc1OC)CN(CCc1ccc(NC(=O)c3cc(C)ccc3NC(=O)c3cnc4ccccc4c3)cc1)CC2` [compound 9584, Quinoline-3-carboxylic acid (2,-{4-[2-(6,7-dimethoxy-3,4-dihydro-1H-isoquinolin-2-yl)-ethyl]-phenylcarbamoyl}-4-methyl-phenyl)-amide], in data set [1], the “Potentiation Index at RMA concentration 10 nM” value stood at 2.1 and the “Potentiation Index at RMA concentration 30 nM” value came out at 36. In addition, the half-inhibitory concentration (IC50) in data set [2] (setting [4]) was 8600 nM. This compound gave an IC50 in data set [3] of 360 nM.

For the compound `COc1cc2c(cc1OC)CN(CCc1ccc(NC(=O)c3cc4c(cc3NC(=O)c3cnc5ccccc5c3)OCO4)cc1)CC2` [compound 9578, Quinoline-3-carboxylic acid (6-{4-[2-(6,7-dimethoxy-3,4-dihydro-1H-isoquinolin-2-yl)-ethyl]-phenylcarbamoyl}-benzo[1,3]dioxoi-5-yl)-amide], in data set [1], the “Potentiation Index at RMA concentration 10 nM” value was 43 and the “Potentiation Index at RMA concentration 30 nM” value is on record as 188. Moreover, in data set [2] (setting [4]), the IC50 is 900 nM. For the same compound, the IC50 in data set [3] came out at 84 nM.

As for `COc1cc2c(cc1OC)CN(CCc1ccc(NC(=O)c3cc(Cl)ccc3NC(=O)c3cnc4ccccc4c3)cc1)CC2` [compound 9593, Quinoline-3-carboxylic acid (2-{4-[2-(6,7-dimethoxy-3,4-dihydro-1H-isoquinolin-2-yl)-ethyl]-phenylcarbamoyl}-4-chloro-phenyl)-amide], in data set [1], the “Potentiation Index at RMA concentration 10 nM” value is 6 and the “Potentiation Index at RMA concentration 30 nM” value was found to be 57. The IC50 in data set [2] (setting [4]) is 7000 nM. Further, the IC50 in data set [3] was 14 nM.

`COc1cc2c(cc1OC)CN(CCCNC(=O)c1ccccc1NC(=O)c1ccc(C3CCCCC3)cc1)CC2` [compound 9466]: the “Potentiation Index at RMA concentration 300 nM” value in data set [1] is 30. The “Potentiation Index at RMA concentration 500 nM” value in data set [1] turned out to be 60. Also, the values for the IC50 in data set [2] (setting [4]), in data set [2] (setting [5]) and in data set [3] were 6000 nM, 50 nM and 1400 nM, respectively.

In the case of `COc1cc2c(cc1OC)CN(CCc1ccc(NC(=O)c3ccccc3NC(=O)c3ccccc3C)cc1)CC2` [compound 9497, 2-(2-Methyl-benzoylamino)-N-{4-[2-(6,7-dimethoxy-3,4-dihydro-1H-isoquinolin-2-yl}-ethyl]-phenyl}-benzamide], the “Potentiation Index at RMA concentration 300 nM” value in data set [1] amounted to 52. Also, in data set [1], the “Potentiation Index at RMA concentration 500 nM” value stood at 200. Moreover, the IC50 in data set [2] (setting [4]) stood at 9000 nM; in data set [2] (setting [5]), 80 nM; in data set [3], 1600 nM.
